In brackets after ≈: the same amount, converted by molar mass. Several values for one entry are separate records, joined by “and”; a condition that tells them apart may be missing. Equal entries are not always repeated. Where two headings read alike, the source gives them in different places. Non-standard residues stand in square brackets, D forms with d. Residues, ends and D or L forms follow the SMILES beside them. No end group written: not given here. *: point of attachment. Palmitoyl = CCCCCCCCCCCCCCCC(=O)*; Dap = NC[C@H](N)C(=O)O
How the values were obtained:
A. baumannii ATCC 19606 = format: cell-based, Acinetobacter baumannii
Experimental: (§1) Inhibition of bacterial growth was determined using resazurin as a marker for cell viability. Resazurin was added to each well, at 0.001% final concentration, and plates incubated at 37° C. for 2 h. Fluorescence intensity was measured, using F (top read), ex 560/10 nm, em 590/10 nm, using a Tecan M1000 Pro monochromator plate reader.

Hemolysis assay = format: cell-based
Experimental: (§2) For the hemolysis assays EDTA-blood was centrifuged at 800×g for 10 min, and the plasma and buffy coat were removed. The erythrocytes were washed three times and resuspended in 5% PBS, pH 7.4. The cells were then incubated with end-over-end rotation for 1 h at 37° C. in the presence of different concentrations of peptides (0, 3, 10, 30, 60 μm). 0.1% Triton X-100 (Sigma-Aldrich) served as positive control. The samples were then centrifuged at 800×g for 10 min.
(§3) The absorbance of hemoglobin release was measured at 540 nm and is expressed as % of Triton X-100-induced hemolysis. These values of triplicates were plotted with Graph Pad Prism 4 as a dose response curve and the CC50 was determined.

erythrocytes = test: Hemolysis assay; format: cell-based
Experimental: as §2, §3

[1] = Cytotoxicity (resazurin) assay
Experimental: For the cytotoxicity (resazurin) assay, HEK293 cells were counted manually in a Neubauer haemocytometer and plated at a density of 4000 cells/well into each well of the 384-well plates containing the 25×(2 μl) concentrated compounds. The medium used was Dulbecco's modified eagle medium (DMEM) supplemented with 10% foetal bovine serum (FBS). Cells were incubated together with the compounds for 20 h at 37° C., 5% CO2. To measure cytotoxicity, 5 μl (equals 100 μM final) resazurin was added to each well after incubation, and incubated for further 3 h at 37° C. with 5% CO2.
After final incubation fluorescence intensity was measured as F ex 560/10 nm, em 590/10 nm (F560/590) using a Tecan M1000 Pro monochromator plate reader. […] The concentration dependent percentage cytotoxicity was fitted to a dose response function (using Pipeline Pilot) and CC50 values determined.

P. aeruginosa ATCC 10145 = test: CFU-assay, P. aeruginosa-cidal activity; format: cell-based, Pseudomonas aeruginosa; settings: pH 5.5, 0.25% glucose
S. aureus ATCC 6538 = test: CFU-assay, S. aureus-cidal activity; format: cell-based, Staphylococcus aureus; settings: pH 5.5, 0.25% glucose
In short: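 Bactericidal CFU-assay in nutrient-deficient 10 mM sodium phosphate buffer pH 5.5 with 0.25% glucose, counting surviving colonies across twofold peptide dilutions from 300 μg/ml to 19 ng/ml. Output is minimal bactericidal concentration (e.g. MBC90, MBC100); some peptides also tested at pH 7.0.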

[2] = tested on: methicillin-resistant S. aureus strain (ATCC 43300); format: cell-based, Staphylococcus aureus
Experimental: Furthermore, sensitivity of a methicillin-resistant S. aureus strain (ATCC 43300) was investigated for palmitoylated CIDAMPs in a microtiter plate screening model, with incubation in Mueller-Hinton medium at 37° C. for 18 h using resazurin as a marker for cell viability.
A sample of each culture was then diluted 40-fold in fresh broth and incubated at 37° C. for 1.5-3 h. […] All the plates were covered and incubated at 37° C. for 18 h.
as §1

[3] = tested on: Klebsiella pneumoniae ATCC 13883; test: CFU-assay, Klebsiella pneumoniae-cidal activity; format: cell-based
E. coli ATCC 25922 = format: cell-based, Escherichia coli; settings: Mueller-Hinton medium
Experimental: as §1

[4] = erythrocytes, read-out: Hemolysis (CC50)

With `CCCCCCCCCCCCCCCC(=O)NCC(=O)N[C@@H](CCCNC(=N)N)C(=O)N[C@@H](Cc1c[nH]cn1)C(=O)NCC(=O)N[C@@H](CO)C(=O)NCC(=O)N[C@@H](CC(C)C)C(=O)NCC(=O)N[C@@H](Cc1c[nH]cn1)C(=O)N[C@@H](CO)C(=O)N[C@@H](CO)C(=O)N[C@@H](CO)C(=O)N[C@@H](Cc1c[nH]cn1)C(=O)NCC(=O)N[C@@H](CCC(N)=O)C(=O)N[C@@H](Cc1c[nH]cn1)C(=O)NCC(=O)N[C@@H](CO)C(=O)NCC(=O)N[C@@H](CO)C(=O)NCC(=O)N[C@@H](CCCNC(=N)N)C(=O)O` [Pal-HR 1-18] (HELM PEPTIDE1{[CCCCCCCCCCCCCCCC(=O)[*:2]].G.R.H.G.S.G.L.G.H.S.S.S.H.G.Q.H.G.S.G.S.G.R}$$$$V2.0) the “MIC, A. baumannii ATCC 19606” value (A. baumannii ATCC 19606; ATCC 19606, 2 h) was ≥32 µg/mL, the HC50 (Hemolysis assay) was > 300 µg/mL and the HC50 at 1 h (Hemolysis assay; human, washed erythrocytes from EDTA-blood, pH 7.4) was > 130 µM. For the same compound, the “hemolytic activity (in words)” value (erythrocytes) was “low hemolytic activity” and the CC50 [1] was > 32 µg/mL and > 13.7 µM.
With `CCCCCCCCCCCCCCCC(=O)NCC(=O)N[C@@H](CCN)C(=O)NCC(=O)N[C@@H](CCN)C(=O)O` [Pal-GDab4, Pal-GDabGDab] (HELM PEPTIDE1{[CCCCCCCCCCCCCCCC(=O)[*:2]].G.[Dab].G.[Dab]}$$$$V2.0) the “MIC, C. neoformans ATCC 208821” value (C. neoformans) was ≥16 µg/mL, the MBC90 (P. aeruginosa ATCC 10145) was 2.35 µg/mL (≈ 4.12 µM) and the MBC100 (P. aeruginosa ATCC 10145) was 9.38 µg/mL (≈ 16.4 µM). The “MIC, A. baumannii ATCC 19606” value (A. baumannii ATCC 19606; ATCC 19606, 2 h) was ≥32 µg/mL, the CC50 (Hemolysis assay) was > 100 µg/mL and the MBC90 (S. aureus ATCC 6538) was 4.7 µg/mL (≈ 8.23 µM). For the same compound, the MBC100 (S. aureus ATCC 6538) was 18.75 µg/mL (≈ 32.9 µM), the CC50 [1] was 32 µg/mL (≈ 56.1 µM) and the “MIC, S. aureus ATCC 43300” value ([2]; ATCC 43300, 18 h) was ≥32 µg/mL.
For “Pal-SHHRPRLFHRRRH (Palmitoyl-SHHRPRLFHRRRH) [Pal-LCE-3B]”, the MBC90 ([3]; pH 5.5, 0.25% glucose) was 0.15 µg/mL, the MBC100 ([3]; pH 5.5, 0.25% glucose) was 9.38 µg/mL and the MBC90 ([3]; pH 7.3, 0.25% glucose) was 2.35 µg/mL. For the same compound, the MBC100 ([3]; pH 7.3, 0.25% glucose) was 4.7 µg/mL.
For `CCCCCCCCCCCCCCCC(=O)N[C@@H](CCCNC(=N)N)C(=O)NCC(=O)N[C@@H](CO)C(=O)N[C@@H](CCCNC(=N)N)C(=O)N[C@@H](CO)C(=O)NCC(=O)N[C@@H](CCC(N)=O)C(=O)N[C@@H](CO)C(=O)N[C@@H](CO)C(=O)N[C@@H](CCCNC(=N)N)C(=O)NCC(=O)N[C@@H](CCC(=O)O)C(=O)N[C@@H](CCCNC(=N)N)C(=O)N[C@@H](CCCNC(=N)N)C(=O)O` [Pal-HR 1-11 2H2R-14] (HELM PEPTIDE1{[CCCCCCCCCCCCCCCC(=O)[*:2]].R.G.S.R.S.G.Q.S.S.R.G.E.R.R}$$$$V2.0), the “MIC, C. neoformans ATCC 208821” value (C. neoformans) was ≥8 µg/mL, the “MIC, A. baumannii ATCC 19606” value (A. baumannii ATCC 19606; Mueller-Hinton medium) was ≥4 µg/mL and the HC50 (Hemolysis assay; [4]) was > 300 µg/mL. The CC50 [1] was > 32 µg/mL, the “MIC, E. coli ATCC 25922” value (E. coli ATCC 25922) was ≥8 µg/mL and the “MIC, S. aureus ATCC 43300” value ([2]; Mueller-Hinton medium) was ≥8 µg/mL.
In the case of `CCCCCCCCCCCCCCCC(=O)N[C@@H](CCCNC(=N)N)C(=O)NCC(=O)N[C@@H](CO)C(=O)N[C@@H](CCCNC(=N)N)C(=O)N[C@@H](CO)C(=O)NCC(=O)N[C@@H](CCC(N)=O)C(=O)N[C@@H](CO)C(=O)N[C@@H](CO)C(=O)N[C@@H](CCCNC(=N)N)C(=O)NCC(=O)N[C@@H](CCC(=O)O)C(=O)N[C@@H](CCCNC(=N)N)C(=O)N[C@@H](CCCNC(=N)N)C(=O)NCC(=O)N[C@@H](CO)C(=O)N[C@@H](CO)C(=O)N[C@@H](CO)C(=O)NCC(=O)N[C@@H](CO)C(=O)N[C@@H](CO)C(=O)N[C@@H](CO)C(=O)N[C@@H](CCCNC(=N)N)C(=O)O` [Pal-HR 1-11 3H3R] (HELM PEPTIDE1{[CCCCCCCCCCCCCCCC(=O)[*:2]].R.G.S.R.S.G.Q.S.S.R.G.E.R.R.G.S.S.S.G.S.S.S.R}$$$$V2.0), the “MIC, C. neoformans ATCC 208821” value (C. neoformans) is reported as ≥32 µg/mL, the “MIC, A. baumannii ATCC 19606” value (A. baumannii ATCC 19606; Mueller-Hinton medium) is reported as ≥8 µg/mL and the HC50 (Hemolysis assay; [4]) is reported as > 300 µg/mL. The CC50 [1] was > 32 µg/mL, the “MIC, C. albicans ATCC 90028” value (C. albicans ATCC 928) was ≥32 µg/mL and the “MIC, E. coli ATCC 25922” value (E. coli ATCC 25922) was ≥32 µg/mL. The “MIC, S. aureus ATCC 43300” value ([2]; Mueller-Hinton medium) was >32 µg/mL.
With `CCCCCCCCCCCCCCCC(=O)NCC(=O)N[C@@H](CCCN)C(=O)N[C@@H](CCCN)C(=O)NCC(=O)NCC(=O)N[C@@H](CCCN)C(=O)NCC(=O)NCC(=O)N[C@@H](CCCN)C(=O)NCC(=O)N[C@@H](CCCN)C(=O)NCC(=O)N[C@@H](CCCN)C(=O)O` [Pal-Orn-GR13, Pal-GOOGGOGGOGOGO] (HELM PEPTIDE1{[CCCCCCCCCCCCCCCC(=O)[*:2]].G.[Orn].[Orn].G.G.[Orn].G.G.[Orn].G.[Orn].G.[Orn]}$$$$V2.0) the HC50 (Hemolysis assay) was > 300 µg/mL, the “hemolytic activity (in words)” value (erythrocytes) was “low hemolytic activity” and the CC50 [1] was > 32 µg/mL.
For `CCCCCCCCCCCCCCCC(=O)NCC(=O)N[C@@H](CCCNC(=N)N)C(=O)N[C@@H](CCCNC(=N)N)C(=O)NCC(=O)N[C@@H](CO)C(=O)NCC(=O)N[C@@H](CC(C)C)C(=O)NCC(=O)N[C@@H](CCCNC(=N)N)C(=O)N[C@@H](CO)C(=O)N[C@@H](CO)C(=O)N[C@@H](CO)C(=O)N[C@@H](CCCNC(=N)N)C(=O)O` [Pal-HR 1-18 3H3R-GR13] (HELM PEPTIDE1{[CCCCCCCCCCCCCCCC(=O)[*:2]].G.R.R.G.S.G.L.G.R.S.S.S.R}$$$$V2.0), the “MIC, C. neoformans ATCC 208821” value (C. neoformans) was ≥16 µg/mL, the “MIC, A. baumannii ATCC 19606” value (A. baumannii ATCC 19606; ATCC 19606, 2 h) was ≥16 µg/mL and the HC50 (Hemolysis assay) was > 300 µg/mL. The “hemolytic activity (in words)” value (erythrocytes) was “low hemolytic activity”, the CC50 [1] was > 32 µg/mL and the “MIC, S. aureus ATCC 43300” value ([2]; ATCC 43300, 18 h) was ≥16 µg/mL.
For “S-Pal-LCE3C55-75: palmitoylated peptide named among those with low hemolytic activity (SHHRHFRSHQCRRQRSNSCDR; also: S-palmitoylated, Cys not given here; UniProt Q5T5A8 55-75, looked up, fragment)”, the “hemolytic activity (in words)” value (erythrocytes) was “low hemolytic activity”.
For `CCCCCCCCCCCCCCCC(=O)NCC(=O)N[C@@H](CN)C(=O)NCC(=O)N[C@@H](CN)C(=O)O` [Pal-GDap4, Pal-GDapGDap] (Palmitoyl-G[Dap]G[Dap]-OH), the “MIC, C. neoformans ATCC 208821” value (C. neoformans) was ≥1 µg/mL, the HC50 (Hemolysis assay) was > 300 µg/mL and the “hemolytic activity (in words)” value (erythrocytes) was “low hemolytic activity”. The CC50 [1] was > 32 µg/mL, the “MIC, C. albicans ATCC 90028” value (C. albicans ATCC 928; ATCC 928) was ≥8 µg/mL and the MIC (C. albicans ATCC 928; ATCC 928, 18 h, pH 7.4) was 1 to 32 µg/mL. For the same compound, the “MIC, S. aureus ATCC 43300” value ([2]; ATCC 43300, 18 h) was ≥8 µg/mL.
With `CCCCCCCCCCCCCCCC(=O)NCC(=O)N[C@@H](CCCCN)C(=O)N[C@@H](CCCCN)C(=O)NCC(=O)NCC(=O)N[C@@H](CCCCN)C(=O)NCC(=O)NCC(=O)N[C@@H](CCCCN)C(=O)NCC(=O)N[C@@H](CCCCN)C(=O)NCC(=O)N[C@@H](CCCCN)C(=O)O` [Pal-K-GR13] (HELM PEPTIDE1{[CCCCCCCCCCCCCCCC(=O)[*:2]].G.K.K.G.G.K.G.G.K.G.K.G.K}$$$$V2.0) the HC50 (Hemolysis assay) was > 300 µg/mL, the “hemolytic activity (in words)” value (erythrocytes) was “low hemolytic activity” and the CC50 [1] was > 32 µg/mL.

— US11479587B2, “Cationic intrinsically disordered antimicrobial peptides” (priority 2016, dated 2022)
